Experiments:
Conditions in all cases: Mus musculus
[1] = test system: Rab10 pThr73; experiment: Rab10 Thr73 dephosphorylation (immunoblot) in WT MEFs; assay type: cell-based, mouse
Method: (§1) Western blot degradation assays for the LRRK2 protacs were performed with WT and PD-associated LRRK2 [G2019S] mouse embryonic fibroblasts (MEFs). The second-generation PROTACs were tested in parallel with the first generation PROTACs SD75, SD82, and SD100. The compounds were tested at 33 nM or […] concentrations for 4 hours or 24 hours, running two biological replicates per condition and achieving quantifications representative of both replicates. Analysis by quantitative immunoblotting was performed with readouts of the total LRRK2 (antibody recognizes epitope in C-terminus of protein), Rab10 pThr73 (physiological substrate) and LRRK2 pSer935 (biomarker phosphorylation site).
(§2) Primary MEFs were generated as described in a previous study (Wiggin et al., Mol. Cell Biol. 2002 April; 22(8):2871-81.). Briefly, the uterine horn was collected from adult female mice at day E12.5 and transferred to a 10 cm tissue culture dish containing cold PBS. Two forceps were used to tear the yolk sacs to isolate each embryo. Forceps were cleaned thoroughly with 70% ethanol between each embryo isolation. The embryos were culled, and a tissue piece was collected in a PCR tube for genotyping. The red tissue of the embryo, which grows to become the heart and liver, was removed. The remainder of the embryo was minced with a scalpel blade and incubated with 7.5 ml trypsin-EDTA solution for 10 minutes in a 37° C. tissue culture CO2 incubator. The dish was removed from the incubator and checked under a light microscope for single cells. 7.5 ml complete media was added to the trypsinised cells, and the cell suspension was transferred to a 15 ml Falcon tube, centrifuged at 1200 rpm for 5 minutes at room temperature. The trypsin was aspirated, the cell pellet was resuspended in 5 ml fresh complete media, and the cell suspension was plated in a 60 mm tissue culture dish and incubated in a 37° C., 5% CO2 tissue culture incubator. The MEFs at this stage were considered as passage 0 and were passaged and expanded for experimental use once the genotype was confirmed by allelic sequencing and immunoblotting. MEFs were cultured in Dulbecco's modified Eagle medium (DMEM) containing 10% (v/v) fetal bovine serum (FBS), 2 mM L-glutamine, 100 U/ml penicillin, and 100 μg/ml streptomycin supplemented with 1× non-essential amino acids and 1 mM sodium pyruvate.
Culturing and passaging of adherent cell lines were carried out using aseptic technique in CL1 or CL2 (for PBMC isolation) biological safety cabinets. All cells were incubated in a 37° C. incubator with 5% CO2. Cell lines were regularly tested for mycoplasma contamination. For western blot assay, the cells were seeded in 6-well plates. After treating with testing compounds at indicated concentrations and time period, the media was removed and the cells were washed with PBS and lysed in 100 μl ice-cold complete lysis buffer containing 50 mM Tris-HCl pH 7.4, 1 mM EGTA, 10 mM 2-glycerophosphate, 50 mM sodium fluoride, 5 mM sodium pyrophosphate, 270 mM sucrose, supplemented with 1 μg/ml microcystin-LR, 1 mM sodium orthovanadate, complete EDTA-free protease inhibitor cocktail (Roche) and 1% (v/v) Triton X-100. The cells were immediately placed on ice and were scraped and collected into 1.5 ml Eppendorf tubes. Cell lysates were incubated on ice for 10 minutes prior to centrifugation at 15,000 g at 4° C. for 15 minutes. The cell pellet was discarded, and supernatant was collected for analysis by quantitative immunoblotting. For long term storage, the supernatant was flash frozen and stored at −80° C. Protein concentrations of cell lysates were determined using the Bradford assay.
Cell lysates containing a quarter of a volume of 4× NuPAGE LDS sample buffer (NP0007) supplemented with 5% β-mercaptoethanol, were heated at 95° C. for 5 minutes. […]

[2] = test system: Rab10 pThr73; experiment: Rab10 Thr73 dephosphorylation (immunoblot) in LRRK2^G2019S MEFs; assay type: cell-based
Method: as §1, with “The” for “Western blot degradation assays for the LRRK2 protacs were performed with WT and PD-associated LRRK2 [G2019S] mouse embryonic fibroblasts (MEFs). The”
as §2
Culturing and passaging of adherent cell lines were carried out using aseptic technique in CL1 or CL2 (for PBMC isolation) biological safety cabinets. All cells were incubated in a 37° C. incubator with 5% CO2. Cell lines were regularly tested for mycoplasma contamination. For western blot assay, the cells were seeded in 6-well plates. […] The cells were immediately placed on ice and were scraped and collected into 1.5 ml Eppendorf tubes. Cell lysates were incubated on ice for 10 minutes prior to centrifugation at 15,000 g at 4° C. for 15 minutes. The cell pellet was discarded, and supernatant was collected for analysis by quantitative immunoblotting. For long term storage, the supernatant was flash frozen and stored at −80° C. Protein concentrations of cell lysates were determined using the Bradford assay.
Cell lysates containing a quarter of a volume of 4× NuPAGE LDS sample buffer (NP0007) supplemented with 5% β-mercaptoethanol, were heated at 95° C. for 5 minutes. 15 to 20 μg of samples were loaded onto pre-cast 4-12% Bis-Tris midi 20W or 26W gels (Thermofisher Scientific®, Cat #WG1402BOX or WG1403BOX) and resolved at 130 V for 2 hours with NuPAGE MOPS SDS running buffer (Thermofisher Scientific® Cat #NP0001-02). Proteins were electrophoretically transferred onto a 0.45 μm nitrocellulose membrane (GE Healthcare, Amersham Protran® Supported 0.45 mm NC) at 90 V for 90 min on ice in transfer buffer (48 mM Tris base and 39 mM glycine supplemented with 20% methanol). The transferred membrane was blocked with 5% (w/v) skim milk powder dissolved in tris-buffered saline with tween (TBS-T) (50 mM Tris base, 150 mM sodium chloride (NaCl), 0.1% (v/v) Tween-20) at room temperature for 1 hour.

[3] = test system: Rab10 pThr73; experiment: as above; assay type: cell-based, mouse
[4] = 33 nM/4 h treatment, read-out: pRab10 inhibited in WT MEFs
[5] = 33 nM/24 h treatment, read-out: pRab10 inhibited in WT MEFs
[6] = 1 μM/4 h treatment, read-out: pRab10 inhibited in WT MEFs
[7] = 1 μM/24 h treatment, read-out: pRab10 inhibited in WT MEFs
[8] = 33 nM/4 h treatment, read-out: pRab10 inhibited in LRRK2^G2019S MEFs
[9] = 33 nM/24 h treatment, read-out: pRab10 inhibited in LRRK2^G2019S MEFs
[10] = 1 μM/4 h treatment, read-out: pRab10 inhibited in LRRK2^G2019S MEFs
[11] = 1 μM/24 h treatment, read-out: pRab10 inhibited in LRRK2^G2019S MEFs

Compound	inhibition at 0.033 µM [1, 4] [%]	inhibition at 0.033 µM [1, 5] [%]	inhibition at 1 µM [1, 6] [%]	inhibition at 1 µM [1, 7] [%]	inhibition at 0.033 µM [2, 8] [%]	inhibition at 0.033 µM [2, 9] [%]	inhibition at 1 µM [3, 10] [%]	inhibition at 1 µM [3, 11] [%]	inhibition at 0.033 µM ([1]; read-out: pRab10 inhibited in WT MEFs, 33 nM/4 h treatment) [%]	inhibition at 0.033 µM ([1]; read-out: pRab10 inhibited in WT MEFs, 33 nM/24 h treatment) [%]	inhibition at 1 µM ([1]; read-out: pRab10 inhibited in WT MEFs, 1 μM/4 h treatment) [%]	inhibition at 1 µM ([1]; read-out: pRab10 inhibited in WT MEFs, 1 μM/24 h treatment) [%]	inhibition at 0.033 µM ([2]; read-out: pRab10 inhibited in LRRK2^G2019S MEFs, 33 nM/4 h treatment) [%]	inhibition at 0.033 µM ([2]; read-out: pRab10 inhibited in LRRK2^G2019S MEFs, 33 nM/24 h treatment) [%]	inhibition at 1 µM ([3]; read-out: pRab10 inhibited in LRRK2^G2019S MEFs, 1 μM/4 h treatment) [%]	inhibition at 1 µM ([3]; read-out: pRab10 inhibited in LRRK2^G2019S MEFs, 1 μM/24 h treatment) [%]
CNc1nc(Nc2ccc(C(=O)N3CCN(Cc4cccc(CSC(C)(C)[C@H](NC(=O)C5(F)CC5)C(=O)N5C[C@H](O)C[C@H]5C(=O)NCc5ccc(-c6scnc6C)cc5)c4)CC3)cc2OC)ncc1Cl [XL01111, (2S,4R)-1-((R)-3-((3-((4-(4-((5-chloro-4-(methylamino)pyrimidin-2-yl)amino)-3-methoxybenzoyl)piperazin-1-yl)methyl)benzyl)thio)-2-(1-fluorocyclopropane-1-carboxamido)-3-methylbutanoyl)-4-hydroxy-N-(4-(4-methylthiazol-5-yl)benzyl)pyrrolidine-2-carboxamide]	0 to 40	0 to 60	10 to 95	30 to 100	0 to 70	0 to 90	20 to 100	10 to 100	–	–	–	–	–	–	–	–
CNc1nc(Nc2ccc(C(=O)N3CCC4(CCN(CCCSC(C)(C)[C@H](NC(=O)C5(F)CC5)C(=O)N5C[C@H](O)C[C@H]5C(=O)NCc5ccc(-c6scnc6C)cc5)CC4)CC3)cc2OC)ncc1Cl [XL02067B, (2S,4R)-1-((R)-3-((3-(9-(4-((5-chloro-4-(methylamino)pyrimidin-2-yl)amino)-3-methoxybenzoyl)-3,9-diazaspiro[5.5]undecan-3-yl)propyl)thio)-2-(1-fluorocyclopropane-1-carboxamido)-3-methylbutanoyl)-4-hydroxy-N-(4-(4-methylthiazol-5-yl)benzyl)pyrrolidine-2-carboxamide]	–	–	–	–	–	–	–	–	0 to 70	0 to 80	80 to 100	80 to 100	0 to 90	30 to 90	10 to 100	80 to 100
CNc1nc(Nc2ccc(C(=O)N3CCN(Cc4ccc(CSC(C)(C)[C@H](NC(=O)C5(F)CC5)C(=O)N5C[C@H](O)C[C@H]5C(=O)NCc5ccc(-c6scnc6C)cc5)cc4)CC3)cc2OC)ncc1C(F)(F)F [XL01070B, (2S,4R)-1-((R)-2-(1-fluorocyclopropane-1-carboxamido)-3-((4-((4-(3-methoxy-4-((4-(methylamino)-5-(trifluoromethyl)pyrimidin-2-yl)amino)benzoyl)piperazin-1-yl)methyl)benzyl)thio)-3-methylbutanoyl)-4-hydroxy-N-(4-(4-methylthiazol-5-yl)benzyl)pyrrolidine-2-carboxamide]	0 to 40	0 to 60	10 to 95	30 to 100	0 to 70	0 to 90	20 to 100	10 to 100	–	–	–	–	–	–	–	–
CNc1nc(Nc2ccc(C(=O)N3CCN(CCCSC(C)(C)[C@H](NC(=O)C4(F)CC4)C(=O)N4C[C@H](O)C[C@H]4C(=O)NCc4ccc(-c5scnc5C)c(F)c4)CC3)cc2OC)ncc1Cl [XL01122, (2S,4R)-1-((R)-3-((3-(4-(4-((5-chloro-4-(methylamino)pyrimidin-2-yl)amino)-3-methoxybenzoyl)piperazin-1-yl)propyl)thio)-2-(1-fluorocyclopropane-1-carboxamido)-3-methylbutanoyl)-N-(3-fluoro-4-(4-methylthiazol-5-yl)benzyl)-4-hydroxypyrrolidine-2-carboxamide]	0 to 40	0 to 60	10 to 95	30 to 100	0 to 70	0 to 90	20 to 100	10 to 100	–	–	–	–	–	–	–	–
CNc1nc(Nc2ccc(C(=O)N3CCN(CCCOc4cc(-c5scnc5C)ccc4CNC(=O)[C@@H]4C[C@@H](O)CN4C(=O)[C@@H](NC(=O)C4(F)CC4)C(C)(C)C)CC3)cc2OC)ncc1Cl [SD13, (2S,4R)—N-(2-(3-(4-(4-((5-chloro-4-(methylamino)pyrimidin-2-yl)amino)-3-methoxybenzoyl)piperazin-1-yl)propoxy)-4-(4-methylthiazol-5-yl)benzyl)-1-((S)-2-(1-fluorocyclopropane-1-carboxamido)-3,3-dimethylbutanoyl)-4-hydroxypyrrolidine-2-carboxamide]	0 to 25	10 to 40	18 to 90	30 to 90	0 to 60	0 to 70	30 to 95	30 to 100	–	–	–	–	–	–	–	–

Reference: US20260001875A1, “AMINOPYRIMIDINYL DERIVATIVES FOR THE TREATMENT OF PARKINSON'S DISEASE” (UNIVERSITY OF DUNDEE, priority 2022, published 2026)
